Assay results taken from PMC6677322, “Dafachronic acid promotes larval development in Haemonchus contortus by modulating dauer signalling and lipid metabolism” (PLoS Pathogens, 2019).
pEC50: −log10 of the molar value.

What was measured:
[1] = biological target: Hc-DAF-12 (Haemonchus contortus, UniProt A0A650FMZ7); test: luciferase reporter assay in HEK293 cells transfected with Hc-DAF-12; assay type: cell-based
[2] = biological target: T1, Ac-DAF-12 (Ancylostoma caninum, UniProt A0A368G7M4); test: luciferase reporter assay in HEK293 cells; assay type: cell-based
T1 construct: gene ANCCAN_15412
T1 sequence (A0A368G7M4 entry or part of it): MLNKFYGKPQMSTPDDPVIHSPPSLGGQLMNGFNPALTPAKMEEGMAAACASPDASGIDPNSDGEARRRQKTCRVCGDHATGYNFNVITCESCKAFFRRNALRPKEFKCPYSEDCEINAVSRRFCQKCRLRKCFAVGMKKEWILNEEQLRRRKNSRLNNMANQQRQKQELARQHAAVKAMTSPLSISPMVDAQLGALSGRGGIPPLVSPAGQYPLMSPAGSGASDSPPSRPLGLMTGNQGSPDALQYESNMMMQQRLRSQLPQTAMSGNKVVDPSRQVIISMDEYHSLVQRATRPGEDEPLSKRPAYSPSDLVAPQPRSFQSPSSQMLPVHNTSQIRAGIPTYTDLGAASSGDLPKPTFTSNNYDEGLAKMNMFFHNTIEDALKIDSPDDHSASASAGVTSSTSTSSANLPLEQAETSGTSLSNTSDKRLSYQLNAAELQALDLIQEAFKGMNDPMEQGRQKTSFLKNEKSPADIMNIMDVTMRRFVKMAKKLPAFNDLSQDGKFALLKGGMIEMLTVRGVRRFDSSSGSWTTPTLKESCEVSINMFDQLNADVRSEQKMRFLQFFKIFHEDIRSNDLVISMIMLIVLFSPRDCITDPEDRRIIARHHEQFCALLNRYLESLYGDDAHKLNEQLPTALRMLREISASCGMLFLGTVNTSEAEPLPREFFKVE

Hc-DAF-12, sequence (A0A650FMZ7 entry or part of it): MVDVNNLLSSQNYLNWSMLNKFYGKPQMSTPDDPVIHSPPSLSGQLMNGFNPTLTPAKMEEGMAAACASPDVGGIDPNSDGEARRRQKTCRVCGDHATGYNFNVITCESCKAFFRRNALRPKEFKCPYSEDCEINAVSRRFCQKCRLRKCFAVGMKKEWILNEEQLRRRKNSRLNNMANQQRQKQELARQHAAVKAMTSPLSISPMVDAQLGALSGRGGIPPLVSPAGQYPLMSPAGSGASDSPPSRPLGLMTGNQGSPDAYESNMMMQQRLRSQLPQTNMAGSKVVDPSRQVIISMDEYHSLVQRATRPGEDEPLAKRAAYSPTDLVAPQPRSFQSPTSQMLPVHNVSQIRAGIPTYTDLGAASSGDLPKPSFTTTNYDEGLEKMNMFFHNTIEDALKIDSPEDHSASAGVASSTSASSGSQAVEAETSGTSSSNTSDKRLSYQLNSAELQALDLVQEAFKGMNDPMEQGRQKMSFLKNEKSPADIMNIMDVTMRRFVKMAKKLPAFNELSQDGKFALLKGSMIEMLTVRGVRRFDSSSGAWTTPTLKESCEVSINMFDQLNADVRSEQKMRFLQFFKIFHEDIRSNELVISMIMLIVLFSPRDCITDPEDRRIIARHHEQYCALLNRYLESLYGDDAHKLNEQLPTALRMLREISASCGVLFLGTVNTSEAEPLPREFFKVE

C[C@H](CCC[C@H](C)C(=O)O)[C@H]1CC[C@H]2C3=CC[C@H]4CC(=O)CC[C@]4(C)[C@H]3CC[C@]12C [(25S)-Δ7-DA]
pEC50 [1]: 7.90 | pEC50 [2]: 7.89
